Where “and” joins values, the source holds several entries; their conditions need not be identical. Equal values may be shown once.
Tests used:
[1] = target: Sodium-dependent serotonin transporter (Homo sapiens, UniProt P31645)
Histamine H2 receptor = Histamine H2 receptor (Homo sapiens, UniProt P25021); type: functional, cell-based
[2] = target: Gamma-aminobutyric acid receptor subunit alpha-1 (Rattus norvegicus, UniProt P62813); type: functional
[3] = target: 5-hydroxytryptamine receptor 2B (Homo sapiens, UniProt P41595); type: functional, cell-based
[4] = target: T1, 5-hydroxytryptamine receptor 2C (Homo sapiens, UniProt P28335)
T1 sequence (P28335 whole entry): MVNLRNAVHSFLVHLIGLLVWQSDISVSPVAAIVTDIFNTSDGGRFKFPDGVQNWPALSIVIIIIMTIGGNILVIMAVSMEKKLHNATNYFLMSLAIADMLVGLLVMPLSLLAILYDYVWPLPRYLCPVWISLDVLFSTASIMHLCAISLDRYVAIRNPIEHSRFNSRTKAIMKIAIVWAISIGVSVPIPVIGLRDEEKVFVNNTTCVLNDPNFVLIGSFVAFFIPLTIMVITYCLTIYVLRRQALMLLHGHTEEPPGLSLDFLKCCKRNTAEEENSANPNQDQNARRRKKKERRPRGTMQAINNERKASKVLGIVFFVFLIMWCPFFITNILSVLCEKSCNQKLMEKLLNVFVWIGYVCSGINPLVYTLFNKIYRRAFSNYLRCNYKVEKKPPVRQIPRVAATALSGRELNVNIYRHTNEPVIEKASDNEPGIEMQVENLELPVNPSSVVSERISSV

Cannabinoid receptor 1 = Cannabinoid receptor 1 (Homo sapiens, UniProt P21554); type: functional, cell-based
[5] = target: 3',5'-cyclic-AMP phosphodiesterase 4D (Homo sapiens, UniProt Q08499); type: functional
Motilin receptor = Motilin receptor (Homo sapiens, UniProt O43193)
[6] = target: T2, Equilibrative nucleoside transporter 1 (Homo sapiens, UniProt Q99808)
T2 sequence (Q99808 whole entry): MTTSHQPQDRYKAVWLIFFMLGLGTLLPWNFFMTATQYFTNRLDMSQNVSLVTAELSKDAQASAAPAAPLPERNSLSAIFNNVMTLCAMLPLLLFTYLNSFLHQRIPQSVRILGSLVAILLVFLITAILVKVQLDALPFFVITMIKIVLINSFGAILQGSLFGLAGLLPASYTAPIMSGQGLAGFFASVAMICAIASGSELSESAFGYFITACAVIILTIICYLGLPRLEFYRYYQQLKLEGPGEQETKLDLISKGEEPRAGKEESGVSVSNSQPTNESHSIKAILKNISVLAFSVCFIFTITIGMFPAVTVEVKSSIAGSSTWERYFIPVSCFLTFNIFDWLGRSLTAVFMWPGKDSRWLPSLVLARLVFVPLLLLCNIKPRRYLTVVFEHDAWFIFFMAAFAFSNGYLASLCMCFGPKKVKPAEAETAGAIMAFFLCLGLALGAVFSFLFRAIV

Adenosine receptor A3 [7] = target: T3, Adenosine receptor A3 (Homo sapiens, UniProt P0DMS8)
T3 sequence (P0DMS8 whole entry): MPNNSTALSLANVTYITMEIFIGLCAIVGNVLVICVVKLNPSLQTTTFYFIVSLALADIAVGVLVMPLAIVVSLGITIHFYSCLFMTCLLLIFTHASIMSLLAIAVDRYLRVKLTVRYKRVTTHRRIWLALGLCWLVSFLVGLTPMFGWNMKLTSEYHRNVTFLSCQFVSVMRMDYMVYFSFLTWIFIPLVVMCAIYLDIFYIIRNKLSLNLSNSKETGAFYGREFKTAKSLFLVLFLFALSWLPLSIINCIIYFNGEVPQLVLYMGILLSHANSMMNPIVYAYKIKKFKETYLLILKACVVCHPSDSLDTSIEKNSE

Melanocortin receptor 4 = Melanocortin receptor 4 (Homo sapiens, UniProt P32245)
Adenosine receptor A2a = Adenosine receptor A2a (Homo sapiens, UniProt P29274)
Progesterone receptor = target: T4, Progesterone receptor (Homo sapiens, UniProt P06401); type: functional
T4 sequence (P06401 whole entry): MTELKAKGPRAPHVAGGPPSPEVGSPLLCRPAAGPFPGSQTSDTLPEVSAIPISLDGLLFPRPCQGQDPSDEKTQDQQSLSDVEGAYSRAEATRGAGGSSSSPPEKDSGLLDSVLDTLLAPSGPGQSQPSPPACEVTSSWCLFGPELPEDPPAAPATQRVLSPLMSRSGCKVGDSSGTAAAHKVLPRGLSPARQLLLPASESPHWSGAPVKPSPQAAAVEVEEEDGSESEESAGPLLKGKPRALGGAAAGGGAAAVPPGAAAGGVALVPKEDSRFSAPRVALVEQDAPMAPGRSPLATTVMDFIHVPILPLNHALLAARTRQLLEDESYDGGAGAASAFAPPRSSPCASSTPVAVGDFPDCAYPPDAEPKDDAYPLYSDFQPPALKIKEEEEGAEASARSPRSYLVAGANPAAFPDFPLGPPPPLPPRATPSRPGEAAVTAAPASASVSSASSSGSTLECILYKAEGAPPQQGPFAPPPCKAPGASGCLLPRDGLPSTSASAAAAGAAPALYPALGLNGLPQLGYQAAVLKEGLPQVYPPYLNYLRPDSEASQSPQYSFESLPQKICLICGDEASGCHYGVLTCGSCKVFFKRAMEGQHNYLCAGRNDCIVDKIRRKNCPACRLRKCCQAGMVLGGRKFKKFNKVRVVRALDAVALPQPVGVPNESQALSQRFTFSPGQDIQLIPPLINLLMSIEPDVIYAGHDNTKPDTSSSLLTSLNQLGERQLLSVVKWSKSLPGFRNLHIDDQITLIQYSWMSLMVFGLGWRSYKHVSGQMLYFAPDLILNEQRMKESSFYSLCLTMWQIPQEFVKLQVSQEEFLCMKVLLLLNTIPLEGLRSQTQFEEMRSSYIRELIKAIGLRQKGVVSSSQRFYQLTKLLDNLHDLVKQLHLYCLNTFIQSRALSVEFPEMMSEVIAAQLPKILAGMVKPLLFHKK

[8] = target: Growth hormone secretagogue receptor type 1 (Homo sapiens, UniProt Q92847)
Vasopressin V1a receptor = Vasopressin V1a receptor (Homo sapiens, UniProt P37288)
Adenosine receptor A3 [9] = target: T3, Adenosine receptor A3; remark: listed apart in the source
Further: assay procedure not described here.

Motilin receptor, sequence (O43193 whole entry): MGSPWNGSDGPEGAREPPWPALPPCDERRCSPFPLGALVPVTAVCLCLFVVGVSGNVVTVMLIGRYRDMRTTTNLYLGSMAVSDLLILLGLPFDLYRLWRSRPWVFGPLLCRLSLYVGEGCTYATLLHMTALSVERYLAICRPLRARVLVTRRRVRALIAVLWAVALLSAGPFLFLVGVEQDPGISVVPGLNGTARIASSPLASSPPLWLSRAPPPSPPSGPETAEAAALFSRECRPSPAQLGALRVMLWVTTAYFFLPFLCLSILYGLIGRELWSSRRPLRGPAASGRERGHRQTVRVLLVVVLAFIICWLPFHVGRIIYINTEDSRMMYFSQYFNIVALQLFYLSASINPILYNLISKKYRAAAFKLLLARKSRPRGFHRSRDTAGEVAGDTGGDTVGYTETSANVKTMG
Adenosine receptor A2a, sequence (P29274 whole entry): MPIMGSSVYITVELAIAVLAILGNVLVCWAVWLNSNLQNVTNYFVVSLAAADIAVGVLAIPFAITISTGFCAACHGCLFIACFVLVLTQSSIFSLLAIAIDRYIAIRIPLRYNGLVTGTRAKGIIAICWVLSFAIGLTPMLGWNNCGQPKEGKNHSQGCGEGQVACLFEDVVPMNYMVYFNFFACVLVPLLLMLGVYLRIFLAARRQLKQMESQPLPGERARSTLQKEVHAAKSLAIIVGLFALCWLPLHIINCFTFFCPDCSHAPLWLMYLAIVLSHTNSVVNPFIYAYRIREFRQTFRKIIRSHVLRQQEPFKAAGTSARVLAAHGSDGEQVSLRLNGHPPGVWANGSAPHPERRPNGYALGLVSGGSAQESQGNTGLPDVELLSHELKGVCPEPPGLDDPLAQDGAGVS
Gamma-aminobutyric acid receptor subunit alpha-1, sequence (P62813 whole entry): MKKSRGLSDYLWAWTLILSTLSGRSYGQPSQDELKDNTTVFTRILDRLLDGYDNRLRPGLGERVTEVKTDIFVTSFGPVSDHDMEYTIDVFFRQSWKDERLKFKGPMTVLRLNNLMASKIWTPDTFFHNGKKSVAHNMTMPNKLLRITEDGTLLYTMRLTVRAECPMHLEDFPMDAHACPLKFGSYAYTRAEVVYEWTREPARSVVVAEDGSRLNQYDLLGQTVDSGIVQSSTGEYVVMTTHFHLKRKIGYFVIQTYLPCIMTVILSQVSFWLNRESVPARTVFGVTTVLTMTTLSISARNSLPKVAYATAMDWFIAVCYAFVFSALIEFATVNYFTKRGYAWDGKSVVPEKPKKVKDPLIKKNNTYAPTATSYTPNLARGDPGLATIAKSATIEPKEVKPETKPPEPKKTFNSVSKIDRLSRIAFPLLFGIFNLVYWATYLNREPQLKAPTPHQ
Growth hormone secretagogue receptor type 1, sequence (Q92847 whole entry): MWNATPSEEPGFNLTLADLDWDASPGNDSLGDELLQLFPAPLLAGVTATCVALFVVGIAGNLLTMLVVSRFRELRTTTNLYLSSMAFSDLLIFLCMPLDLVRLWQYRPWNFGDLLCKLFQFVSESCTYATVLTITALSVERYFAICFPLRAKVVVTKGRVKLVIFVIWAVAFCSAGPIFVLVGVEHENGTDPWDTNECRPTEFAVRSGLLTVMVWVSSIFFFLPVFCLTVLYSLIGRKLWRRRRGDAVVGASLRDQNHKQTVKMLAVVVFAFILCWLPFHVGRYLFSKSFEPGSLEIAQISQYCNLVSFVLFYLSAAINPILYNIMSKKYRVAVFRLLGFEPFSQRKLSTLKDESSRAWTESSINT
Cannabinoid receptor 1, sequence (P21554 whole entry): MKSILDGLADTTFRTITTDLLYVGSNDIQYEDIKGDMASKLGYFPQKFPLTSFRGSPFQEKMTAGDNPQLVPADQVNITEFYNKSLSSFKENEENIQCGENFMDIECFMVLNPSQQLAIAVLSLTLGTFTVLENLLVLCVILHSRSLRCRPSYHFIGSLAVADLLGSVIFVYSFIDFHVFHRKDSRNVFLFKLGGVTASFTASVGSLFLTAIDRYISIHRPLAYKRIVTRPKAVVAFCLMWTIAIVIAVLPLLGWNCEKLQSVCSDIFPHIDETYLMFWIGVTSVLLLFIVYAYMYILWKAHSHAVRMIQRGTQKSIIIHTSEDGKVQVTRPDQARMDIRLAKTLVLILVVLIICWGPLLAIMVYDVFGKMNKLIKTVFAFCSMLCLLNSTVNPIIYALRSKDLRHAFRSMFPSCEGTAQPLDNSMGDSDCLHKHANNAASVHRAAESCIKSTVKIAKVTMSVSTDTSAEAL
Histamine H2 receptor, sequence (P25021 whole entry): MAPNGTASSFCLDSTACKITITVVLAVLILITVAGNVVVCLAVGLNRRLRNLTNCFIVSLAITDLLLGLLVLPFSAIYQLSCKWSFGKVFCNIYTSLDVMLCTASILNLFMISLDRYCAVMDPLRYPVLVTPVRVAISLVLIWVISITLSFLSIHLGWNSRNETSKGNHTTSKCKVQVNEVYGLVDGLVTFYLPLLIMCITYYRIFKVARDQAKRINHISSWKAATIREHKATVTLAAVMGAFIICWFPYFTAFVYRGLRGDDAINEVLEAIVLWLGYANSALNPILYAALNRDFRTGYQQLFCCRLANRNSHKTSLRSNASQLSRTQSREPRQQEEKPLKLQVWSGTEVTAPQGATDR
5-hydroxytryptamine receptor 2B, sequence (P41595 whole entry): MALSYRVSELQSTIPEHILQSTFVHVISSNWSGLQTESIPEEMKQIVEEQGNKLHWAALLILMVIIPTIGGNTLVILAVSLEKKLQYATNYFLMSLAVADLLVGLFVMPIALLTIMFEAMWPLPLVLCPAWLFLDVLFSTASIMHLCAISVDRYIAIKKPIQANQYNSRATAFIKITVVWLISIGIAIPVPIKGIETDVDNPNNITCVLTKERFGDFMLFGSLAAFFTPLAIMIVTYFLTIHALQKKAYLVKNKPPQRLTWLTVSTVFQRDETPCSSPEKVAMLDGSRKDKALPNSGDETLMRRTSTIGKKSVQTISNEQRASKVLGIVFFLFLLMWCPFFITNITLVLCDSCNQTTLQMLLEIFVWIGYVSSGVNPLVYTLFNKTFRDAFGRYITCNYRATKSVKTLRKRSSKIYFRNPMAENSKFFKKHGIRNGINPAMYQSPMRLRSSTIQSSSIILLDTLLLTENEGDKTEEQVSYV
Melanocortin receptor 4, sequence (P32245 whole entry): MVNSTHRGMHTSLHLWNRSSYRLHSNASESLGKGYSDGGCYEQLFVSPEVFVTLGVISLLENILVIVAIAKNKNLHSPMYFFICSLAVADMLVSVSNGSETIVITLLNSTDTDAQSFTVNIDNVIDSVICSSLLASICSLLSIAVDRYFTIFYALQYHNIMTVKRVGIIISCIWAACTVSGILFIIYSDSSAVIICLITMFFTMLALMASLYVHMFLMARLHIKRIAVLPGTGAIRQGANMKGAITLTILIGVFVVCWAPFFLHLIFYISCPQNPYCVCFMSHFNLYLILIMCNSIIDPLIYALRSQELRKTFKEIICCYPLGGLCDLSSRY
Vasopressin V1a receptor, sequence (P37288 whole entry): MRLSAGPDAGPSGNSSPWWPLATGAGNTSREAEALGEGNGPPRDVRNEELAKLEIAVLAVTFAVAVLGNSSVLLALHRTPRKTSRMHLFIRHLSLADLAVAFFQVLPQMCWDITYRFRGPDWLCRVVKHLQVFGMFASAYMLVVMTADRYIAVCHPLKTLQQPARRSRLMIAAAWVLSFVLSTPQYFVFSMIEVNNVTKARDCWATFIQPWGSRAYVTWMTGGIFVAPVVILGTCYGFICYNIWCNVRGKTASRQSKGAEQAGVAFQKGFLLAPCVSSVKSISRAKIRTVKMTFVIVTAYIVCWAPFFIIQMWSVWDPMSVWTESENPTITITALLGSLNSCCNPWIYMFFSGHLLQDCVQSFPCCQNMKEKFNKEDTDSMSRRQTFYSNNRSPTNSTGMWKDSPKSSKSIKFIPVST
3',5'-cyclic-AMP phosphodiesterase 4D, sequence (Q08499 whole entry): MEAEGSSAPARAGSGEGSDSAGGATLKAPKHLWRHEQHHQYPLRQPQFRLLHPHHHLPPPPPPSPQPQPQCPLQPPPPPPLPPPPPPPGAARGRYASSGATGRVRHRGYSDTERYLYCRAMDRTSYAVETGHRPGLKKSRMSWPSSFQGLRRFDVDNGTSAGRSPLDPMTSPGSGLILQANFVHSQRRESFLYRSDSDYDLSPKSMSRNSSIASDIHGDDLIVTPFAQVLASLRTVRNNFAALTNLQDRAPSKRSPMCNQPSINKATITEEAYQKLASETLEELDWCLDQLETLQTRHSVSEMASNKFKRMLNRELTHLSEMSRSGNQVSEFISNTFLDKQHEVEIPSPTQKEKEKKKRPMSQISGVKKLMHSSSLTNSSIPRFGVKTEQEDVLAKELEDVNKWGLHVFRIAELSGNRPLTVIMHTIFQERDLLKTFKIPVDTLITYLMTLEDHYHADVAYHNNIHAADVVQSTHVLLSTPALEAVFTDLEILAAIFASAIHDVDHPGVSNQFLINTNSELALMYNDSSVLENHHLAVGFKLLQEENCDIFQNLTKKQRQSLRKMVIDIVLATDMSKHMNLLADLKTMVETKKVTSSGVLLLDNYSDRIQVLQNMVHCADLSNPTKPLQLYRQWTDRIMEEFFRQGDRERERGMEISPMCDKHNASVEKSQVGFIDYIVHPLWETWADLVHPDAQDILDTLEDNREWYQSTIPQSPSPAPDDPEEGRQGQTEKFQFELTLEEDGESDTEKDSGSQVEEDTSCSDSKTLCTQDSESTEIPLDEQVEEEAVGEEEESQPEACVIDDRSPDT

SMILES	AC50 [1]	AC50 (Histamine H2 receptor)	AC50 [2]	AC50 [3]	AC50 [4]	AC50 (Cannabinoid receptor 1)	AC50 [5]	AC50 (Motilin receptor)	AC50 [6]	AC50 (Adenosine receptor A3 [7])	AC50 (Melanocortin receptor 4)	AC50 (Adenosine receptor A2a)	AC50 (Progesterone receptor)	AC50 [8]	AC50 (Vasopressin V1a receptor)	AC50 (Adenosine receptor A3 [9])
CN(CC1(C)CCCO1)S(=O)(=O)c1ccc(Cl)c(S(N)(=O)=O)c1 (stereo unspecified) [MEFRUSIDE]	> 30 µM	> 30 µM	> 30 µM	> 30 µM	> 30 µM	> 30 µM	> 30 µM									
CO[C@H]1/C=C/O[C@@]2(C)Oc3c(C)c(O)c4c(O)c(c(/C=N/N5CCN(C)CC5)c(O)c4c3C2=O)NC(=O)/C(C)=C\C=C\[C@H](C)[C@H](O)[C@@H](C)[C@@H](O)[C@@H](C)[C@H](OC(C)=O)[C@@H]1C [RIFAMPIN]		> 30 µM	> 30 µM	> 30 µM		> 30 µM	13 µM	> 30 µM	12.4 µM	27 µM	> 30 µM	13 µM	> 30 µM	> 30 µM	26.7 µM	
O=C1C(CC[S+]([O-])c2ccccc2)C(=O)N(c2ccccc2)N1c1ccccc1 (stereo unspecified) [SULFINPYRAZONE]		> 10 µM	> 10 µM	> 30 µM	> 30 µM	> 30 µM	> 30 µM	> 10 µM	> 10 µM	> 10 µM	> 10 µM	> 10 µM	> 10 µM	> 10 µM	> 10 µM	
CC(C)Cc1ccc(C(C)C(=O)O)cc1 (stereo unspecified) [IBUPROFEN]		> 10 µM	> 10 µM	> 10 µM	> 30 µM	> 30 µM	> 30 µM	> 10 µM	> 30 µM	> 30 µM	> 30 µM	> 30 µM		> 30 µM	> 30 µM	> 30 µM
CC(C)N(CCC(C(N)=O)(c1ccccc1)c1ccccn1)C(C)C (stereo unspecified) [DISOPYRAMIDE]		> 10 µM	> 10 µM	> 10 µM	> 30 µM	> 30 µM	> 10 µM	> 30 µM	> 30 µM	> 30 µM	> 30 µM	> 30 µM	> 30 µM	> 30 µM	> 30 µM	
CCc1nc(C(N)=O)c(Nc2ccc(N3CCC(N4CCN(C)CC4)CC3)c(OC)c2)nc1NC1CCOCC1 [GILTERITINIB]	> 30 µM															
C#C[C@]1(O)CC[C@H]2[C@@H]3CCC4=CC(=O)CC[C@@H]4[C@H]3C(=C)C[C@@]21CC [ETONOGESTREL]	> 30 µM	> 30 µM	27 µM	> 30 µM	> 10 µM	> 30 µM	> 30 µM									
C=CC[C@@H]1/C=C(\C)C[C@H](C)C[C@H](OC)[C@H]2O[C@@](O)(C(=O)C(=O)N3CCCC[C@H]3C(=O)O[C@H](/C(C)=C/[C@@H]3CC[C@@H](O)[C@H](OC)C3)[C@H](C)[C@@H](O)CC1=O)[C@H](C)C[C@@H]2OC [TACROLIMUS ANHYDROUS]		> 10 µM	> 30 µM	> 30 µM	> 30 µM	> 30 µM	> 30 µM	9.44 µM and > 10 µM	7.49 µM and > 30 µM	11 µM and 27.2 µM	> 30 µM	> 30 µM	> 30 µM	> 30 µM	> 30 µM	
COc1ccccc1Oc1c(NS(=O)(=O)c2ccc(C(C)(C)C)cc2)nc(-c2ncccn2)nc1OCCO [BOSENTAN]		> 10 µM	> 10 µM	> 10 µM	> 30 µM	> 30 µM	> 30 µM	> 10 µM	> 30 µM	> 30 µM	> 30 µM	> 30 µM	> 30 µM	> 30 µM	> 30 µM	
C[C@]12C=CC(=O)N[C@@H]1CC[C@@H]1[C@@H]2CC[C@]2(C)[C@@H](C(=O)Nc3cc(C(F)(F)F)ccc3C(F)(F)F)CC[C@@H]12 [DUTASTERIDE]		> 10 µM	> 30 µM	> 10 µM	> 30 µM	> 30 µM	> 30 µM	> 10 µM	> 10 µM	> 10 µM	> 10 µM	> 10 µM	> 10 µM	> 10 µM	> 10 µM	
Cc1onc(-c2ccccc2)c1-c1ccc(S(N)(=O)=O)cc1 [VALDECOXIB]		> 10 µM	> 10 µM	> 10 µM	> 30 µM	> 30 µM	> 10 µM	> 30 µM	> 30 µM	> 30 µM	> 30 µM	> 30 µM	> 30 µM	> 30 µM	> 30 µM	23.8 µM
CCOC(=O)c1c(C)cc2c(CO)n[nH]c(=O)c2c1C [OXAGRELATE]	> 30 µM															
CC[C@@]1(O)C(=O)OCc2c1cc1n(c2=O)Cc2cc3c([N+](=O)[O-])cccc3nc2-1 [RUBITECAN]	> 30 µM															
COc1ccccc1OCCNCC(O)COc1cccc2[nH]c3ccccc3c12 (stereo unspecified) [CARVEDILOL]		> 10 µM	> 10 µM	> 30 µM	1.1 µM	> 30 µM	> 10 µM	7.61 µM	31.7 µM	18.6 µM	29.9 µM	> 30 µM	> 30 µM	14.1 µM	> 30 µM	
C[C@@H](Oc1cc(-c2cnn(C3CCNCC3)c2)cnc1N)c1c(Cl)ccc(F)c1Cl [CRIZOTINIB]			> 30 µM	> 30 µM	> 30 µM	> 10 µM	4.8 µM	16 µM	> 30 µM	8.93 µM	19.8 µM	> 30 µM	> 30 µM	13.9 µM	> 30 µM	
